Test results from patent publication US11447523B2, “Methods for reducing CD36 expression” (Cornell Research Foundation, Inc., priority 2005, dated 2022).
“Also recorded” adds a separate entry of the source.

Tests used:
[1] = system: isolated guinea pig hearts; experiment: Isolated hearts: lipid peroxidation, endothelial apoptosis and coronary flow after cold ischemia and warm reperfusion; conditions: 1 nM SS-31 or 100 nM SS-20 in St. Thomas solution
Procedure: Guinea pig hearts were perfused with a cardioplegic solution (St. Thomas solution) alone or St. Thomas solution containing either 1 nM SS-31 or 100 nM SS-20 for 3 min. and then subjected to 18 hours of cold ischemia (4° C.). The hearts were then reperfused with Krebs Henseleit buffer at 34° C. for 90 min. Immunohistochemical analysis of 4-hydroxynonenol (HNE)-modified proteins in paraffin sections from tissue slices were performed by incubation with an anti-HNE antibody (Santa Cruz) and a fluorescent secondary antibody. […] HNE staining was reduced in hearts stored in SS-31 (FIG. 13C) or SS-20 (FIG. 13D).
Guinea pig heats were perfused with a cardioplegic solution (St. Thomas solution) alone or St. Thomas solution containing either 1 nM SS-31 or 100 nM SS-20 for 3 min. and then subjected to 18 hours of cold ischemia (4° C.). The hearts were then reperfused with Krebs Henseleit buffer at 34° C. for 90 min. After deparaffinization, sections were incubated with deoxynucleotidyl transferase (Tdt) with digoxigenin-dNTP for 1 hour. The reaction was stopped with terminating buffer. A fluorescent anti-digoxigenin antibody was then applied.
A significant improvement of coronary blood flow after prolonged cold ischemic storage and warm reperfusion occurred (FIG. 15). Guinea pigs hearts were perfused with a cardioplegic solution (St. Thomas solution) alone or St. Thomas solution containing either 1 nM SS-31 (FIG. 15A) or 100 nM SS-20) (FIG. 15B) for 3 min. and then subjected to 18 hours of cold ischemia (4° C.). The hearts were then reperfused with Krebs Henseleit buffer at 34° C. for 90 min.

CD36 [2] = experiment: CD36 immunostaining in isolated hearts after cold ischemic storage and warm reperfusion; set-up: species or system guinea pig; conditions: 1 nM SS-31 or 100 nM SS-20 in St. Thomas solution, 18 h at 4° C., 90 min reperfusion at 34° C.
Procedure: Isolated guinea pig hearts were perfused with St. Thomas solution alone, or St. Thomas solution containing 1 nM SS-31 or 100 nM SS-20, for 3 min. and then stored in the same solution at 4° C. for 18 hours. After ischemic storage, hearts were reperfused with 34° C. Kreb-Henseleit solution for 90 min. Hearts freshly isolated from guinea pigs were used as controls.
The hearts were fixed in paraffin and sliced for immunostaining with an anti-CD36 rabbit polyclonal antibody. Two sections are shown for each treatment group. […] The “background” (FIGS. 12A and 12B) represents two sections from a normal non-ischemic heart that was not treated with the primary antibody. “Normal heart” (FIGS. 12C and 12D) represents two sections obtained from a non-ischemic heart.

CD36 [3] = experiment: CD36 protein expression by western blot in mouse peritoneal macrophages; type: cell-based; conditions: P<0.01
Text: Other controls included CD36 expression from mouse heart (H) and macrophages obtained from CD36 knockout mice (KO). The amount of CD36 protein was normalized to β-actin.

[4] = system: mouse peritoneal macrophages; experiment: oxLDL-induced apoptosis of macrophages; type: cell-based; conditions: SS-31 1 nM concurrent with oxLDL (oxLDL alone 32.8%, no oxLDL 6.7%)
Procedure: Incubation of macrophages with oxLDL increased apoptotic cells from 6.7% to 32.8%.

[5] = system: mouse peritoneal macrophages; experiment: oxLDL-induced foam cell formation (oil red O) in macrophages; type: cell-based; conditions: SS-31 1 μM, oxLDL 48 h
Text: Foam cell is indicated by oil red O which stains lipid droplets red.

CD36 [6] = experiment: oxLDL-induced CD36 mRNA expression in mouse peritoneal macrophages; type: cell-based
Procedure: CD36 expression is regulated at the transcriptional level by various cellular stimuli, including glucose and oxLDL. Macrophages were harvested from mice peritoneal cavity and culture overnight in the absence or presence of oxLDL (50 μg/ml) for 48 h.

CD36 [7] = experiment: CD36 immunostaining on renal tubular cells after unilateral ureteral obstruction (UUO); type: in vivo, Sprague-Dawley rats; conditions: rats, SS-31 1 mg/kg ip one day before UUO and daily for 14 days
Procedure: UUO was performed in Sprague-Dawley rats. The rats were treated with saline (ip, n=6) or SS-31 (1 mg/kg ip, n=6) one day prior to induction of UUO, and once a day for 14 days after UUO. Rats were killed, kidneys removed, embedded in paraffin and sectioned. The slides were treated with the anti-CD36 polyclonal IgG (Santa Cruz #sc-9154; 1:100 with blocking serum) at room temperature for 1.5 hours. The slides were then incubated with the second antibody conjugated with biotin (anti-rabbit IgG-G1; ABC kit, PK-6101) at room temperature for 30 min. The slides were then treated with avidin, developed with DAB and counterstained with 10% hematoxylin. The contralateral unobstructed kidney served as the control for each animal.

[8] = system: obstructed kidney after UUO; experiment: Kidney damage after unilateral ureteral obstruction (HNE, TUNEL, ED1 macrophages, Masson's trichrome); type: in vivo, Sprague-Dawley rats; conditions: rats, SS-31 1 mg/kg ip one day before UUO and daily for 14 days
Procedure: Rats were then killed, kidneys removed, embedded in paraffin and sectioned. Slides were incubated with anti-HNE rabbit IgG and a biotin-linked anti-rabbit IgG was used as secondary antibody. The slides were developed with DAB. Lipid peroxidation, which was increased by UUO, was reduced by SS-31 treatment (FIG. 8).
Rats were then killed, kidneys removed, embedded in paraffin and sectioned. To quantitate nuclei with fragmented DNA, the TUNEL assay were performed with in situ TUNEL kit (Intergen, Purchase, N.Y.). Slides were developed with DAB and counterstained with 10% hematoxylin.
Rats were treated with either saline (n=6) or SS-31 (1 mg/kg ip, n=6) one day prior to induction of UUO, and once a day for 14 days after UUO. Rats were then killed, kidneys removed, embedded in paraffin and sectioned. Slides were treated with monoclonal antibody for ED1 macrophage (1:75; Serotec). Horseradish-peroxidase-linked rabbit anti-mouse secondary antibody (Dako) was used for macrophage detection. Sections were then counterstained with 10% hematoxylin.
Rats were treated with either saline (n=6) or SS-31 (1 mg/kg ip, n=6) one day prior to induction of UUO, and once a day for 14 days after UUO. Rats were then killed, kidneys removed, embedded in paraffin and sectioned. Slides were stained with hematoxylin and eosin and Masson's trichome for interstitial fibrosis (blue stain).

[9] = 18 h at 4° C., 90 min reperfusion

Substance: D-Arg-2′6′Dmt-Lys-Phe-NH2 [SS-31]
- HNE staining (lipid peroxidation) in stored hearts [1, 9]: reduced
- endothelial apoptosis in stored hearts [1, 9]: Apoptotic cells were not observed
- coronary flow restored, of pre-ischemic flow ([1]; 18 h at 4° C., 90 min reperfusion, pre-ischemic control = 100%): approximately 80%
- coronary flow (in words) ([1]; 18 h cold ischemia, warm reperfusion): preserves coronary flow
- CD36 staining in stored hearts (CD36 [2]): significantly reduced; also recorded: did not show the upregulation of CD36 expression
- oxLDL-induced upregulation of CD36 protein expression (CD36 [3]; SS-31 1 μM concurrent with 25 μg/ml oxLDL, 48 h): significantly inhibited the upregulation of CD36 protein expression; also recorded: reduced
- CD36 protein expression versus vehicle control (CD36 [3]; SS-31 1 μM, no oxLDL, normalized to β-actin): significantly reduced CD36 protein expression
- percentage of apoptotic cells induced by oxLDL [4]: 20.8%
- oxLDL-induced foam cell formation [5]: prevented oxLDL-induced foam cell formation; also recorded: reduced
- oxLDL-induced up-regulation of CD36 mRNA (CD36 [6]; SS-31 10 nM or 1 μM, oxLDL 50 μg/ml, 48 h): abolished the up-regulation of CD36; also recorded: reduced oxLDL-induced CD36 mRNA expression
- CD36 expression, peptide by itself (CD36 [6]; SS-31 alone, without oxLDL): had no effect on CD36 expression
- CD36 expression on tubular cells of obstructed kidney (CD36 [7]): significant reduction in CD36 expression; also recorded: suppresses the upregulation of CD36; also recorded: decreases CD36 expression
- tubular dilation [8]: Tubular dilation was also observed
- number of apoptotic cells (TUNEL) in obstructed kidney ([8]; P<0.001, 1 mg/kg): significantly reduced; also recorded: reduced tubular cell apoptosis
- interstitial fibrosis in obstructed kidney ([8]; P<0.05, 1 mg/kg): significantly less fibrosis; also recorded: reduced interstitial fibrosis
- macrophage infiltration (ED1) in obstructed kidney ([8]; P<0.05, 1 mg/kg): significantly reduced; also recorded: reduced macrophage infiltration
- lipid peroxidation (HNE stain) in obstructed kidney ([8]; vs saline, 1 mg/kg): significantly less HNE stain; also recorded: reduces lipid peroxidation
